Measurements as given in PubChem BioAssay AID179 (DTP/NCI, 2004).
Calls of active or inactive are those of the source.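 The calls were made as follows: active = compounds giving half or more protection of infected cells from virus-caused growth loss, again on retest; inactive = the rest.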

Test system: CEM cells HIV-1 protection, formazan growth assay
Test: NCI AIDS Antiviral Assay
Settings: for IC50: measured here: growth of uninfected CEM cells
Method in brief: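 Steps: treat uninfected and HIV-1-infected human CEM cells at five drug levels; quantify growth by soluble formazan; retest any compound reaching 50% protection; classify actives from the retest.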

Compound	EC50 [µM]	IC50 [µM]	outcome
COc1ccc(/C=N/n2cnc3c(c2=O)SC(=C(C#N)C#N)N3c2ccccc2)cc1	> 6.17	> 6.17	
Cc1cn(C2OCC(CO)C2N=[N+]=[N-])c(=O)[nH]c1=O (stereo unspecified)	> 200	> 200	
O=S(=O)(/C=C/CS(=O)(=O)c1ccccc1)c1ccccc1			inactive
O=C1N=C(SC2OC(CO)C(O)C(O)C2O)S/C1=C\c1ccccc1 (stereo unspecified)			inactive
O=C(O)c1cc(N=Nc2ccc(/C=C/c3ccc(N=Nc4cc(C(=O)O)c(O)c5ccccc45)cc3S(=O)(=O)O)c(S(=O)(=O)O)c2)c2ccccc2c1O	46.8	72.4	
CC(CNN=C(N)N)NN=C(N)N (stereo unspecified)	> 200	> 200	
CC1=C(C(=O)Nc2ccccc2C)C(/C=C/c2ccccc2)C(C(=O)Nc2ccccc2C)=C(C)N1			inactive
N#Cc1c(N2CCCC2)ncn(-c2ccccc2)c1=S	> 200	> 200	
Cc1ccc(C(=O)c2cccc(C)c2C(=O)O)c(C)c1	> 200	> 200	
CCCCCCCCCCCCC(Br)C(=O)OCC1OC(n2cc(C)c(=O)[nH]c2=O)CC1N=[N+]=[N-] (stereo unspecified)	0.0977	3.39	
O=C1C(=O)c2ccccc2C(O)=C1CC=C(Cl)Cl	> 126	0.955	
O=C1c2ccccc2N2OC3(N4CCOCC4)CCCC3C12c1ccccc1 (stereo unspecified)	> 5.37	> 5.37	
Oc1cccc2cccnc12	> 1230	2.34	inactive
O=c1c2ccc(Cl)cc2nc2n1OCC2	> 132	> 132	
CC1(CCC#N)CCC(N)=CC1=O (stereo unspecified)	> 200	> 200	
O=c1[nH]nc(-c2ccccc2)n1/N=C\c1ccccc1	> 200	> 200	
O=C1C(Cl)C(c2ccccc2Cl)N1n1cnc2ccccc2c1=O (stereo unspecified)	> 14.5	> 14.5	
CCCCOC(C)(C)/C=C/C(O)[C@](C)(O)[C@H]1[C@H](O)C[C@@]2(C)[C@@H]3CCc4c(cc(OC5OC(CO)C(O)C(O)C5O)c(O)c4C)C3(C)C(=O)C[C@]12C (stereo partly specified)	> 200	> 200	
O=C1OCCOCCOC(=O)c2cccc(n2)C(=O)OCCOCCOC(=O)c2cccc1n2	> 525	> 525	
CCOP(=O)(Cc1cc(C(C)(C)C)c(O)c(C(C)(C)C)c1)OCC	> 100	> 100	
O=C(NCCCCCCCCCCCCNC(=O)c1cnc2ccccc2n1)c1cnc2ccccc2n1	> 4.9	> 4.9	

Compound	EC50 [µM]	IC50 [µM]	outcome
CCCCN=Cc1c(O)c(O)c(C(C)C)c2cc(C)c(-c3c(C)cc4c(C(C)C)c(O)c(O)c(C=NCCCC)c4c3O)c(O)c12			inactive
CC1(n2nc(-c3ccccc3)n(-c3ccccc3)c2=O)CSC1	> 41.7	> 41.7	
Cc1nc(C(N)=S)sc1C(=O)CC(=O)C(=O)Nc1cccc(Cl)c1C	> 170	> 170	
Cc1c(O)c(O)c(C)c(CCN)c1O	> 200	11	
COc1ccc(N2C(Cl)C(=O)C2c2c[nH]c3ccccc23)cc1 (stereo unspecified)	> 151	132	
O=C(O)C1(CC(CCCN2CCCCC2)c2ccccc2)CCCC1 (stereo unspecified)	> 200	191	
O=P1(N2CCOCC2)OCCO1	> 200	> 200	
O=C1C[C@H](c2ccccc2)O[C@@H](c2ccccc2)C1	> 200	> 200	
CCCCS(=O)CCC(N)P(=O)(O)O (stereo unspecified)	> 200	> 200	
CC#CC(O)(C(=O)OC1CCC2CCC1N2C)C1CCCC1 (stereo unspecified)	> 200	> 200	
C[C@@H]1CN2SN1C[C@@H]2C	> 1740	> 1740	
O=C(O)c1ccccc1/C=C1\Cc2cc3c(cc2C1=O)CCC3	> 200	> 200	
O=C1CN(S(=O)(=O)c2ccc([N+](=O)[O-])cc2)CC(=O)CN(S(=O)(=O)c2ccc([N+](=O)[O-])cc2)C1	> 200	> 200	
O=C1OCC/C1=C\c1ccc2c(c1)OCO2	> 45.7	> 45.7	
NC(CCC(=O)NC(CSc1ccc([N+](=O)[O-])cc1[N+](=O)[O-])C(=O)NCC(=O)O)C(=O)O (stereo unspecified)	> 525	> 525	
N#C/C(=C(\c1ccccc1)c1ccccn1)c1ccccc1	> 20	1.1	
CNCCN=c1ccc2c3c1c(O)c1c(O)ccc(=O)c1c3[nH]n2CCNCCO	> 112	0.347	
Cn1c2ccc([N+](=O)[O-])cc2c(=O)n1Cc1ccccc1F	> 200	58.9	
CCCCCC/C=[N+](/[O-])CC1OC(n2ccc(=O)[nH]c2=O)C(O[Si](C)(C)C(C)(C)C)C1O[Si](C)(C)C(C)(C)C (stereo unspecified)	> 200	6.76	
CN1C(=O)/C(=C2\SC(=O)N(CN3CCOCC3)C2=O)c2ccccc21	> 200	37.2	
CC1CCCN(CC(O)CN2CCN(CC(O)CN3CCCC(C)C3)CC2)C1 (stereo unspecified)	> 13.2	> 13.2	
